# Experimental data published in patent US7985753B2, “Substituted pyrazolo[1,5-A]pyrimidines as metabotropic glutamate receptor modulators” (MERZ PHARMA GmbH & Co. KGaA, priority 2006, dated 2011).
# Tests used:
# [1] = biological target: T1, transmembrane allosteric modulatory sites of mGluR5 receptors in cortical membranes (Rattus norvegicus, UniProt P31424); assay: [^3H]-MPEP binding assay in rat cortical membranes; details: read-out: mGluR5_M_MPEP_r_CTX_IC50
# T1 construct: from tissue; host or cells: rat brain cortex membranes
# Method: Male Sprague-Dawley rats (200-250 g) are decapitated and their brains are removed rapidly. The cortex is dissected and homogenized in 20 volumes of ice-cold 0.32 M sucrose using a glass-Teflon homogenizer. The homogenate is centrifuged at 1000×g for 10 minutes. The pellet is discarded and the supernatant centrifuged at 20,000×g for 20 minutes. The resulting pellet is re-suspended in 20 volumes of distilled water and centrifuged for 20 minutes at 8000×g. Then the supernatant and the buffy coat are centrifuged at 48,000×g for 20 minutes in the presence of 50 mM Tris-HCl, pH 8.0. The pellet is then re-suspended and centrifuged two to three more times at 48,000×g for 20 minutes in the presence of 50 mM Tris-HCl, pH 8.0. All centrifugation steps are carried out at 4° C. After resuspension in 5 volumes of 50 mM Tris-HCl, pH 8.0 the membrane suspension is frozen rapidly at −80° C.
# On the day of assay the membranes are thawed and washed four times by resuspension in 50 mM Tris-HCl, pH 8.0 and centrifugation at 48,000×g for 20 minutes and finally re-suspended in 50 mM Tris-HCl, pH 7.4. The amount of protein in the final membrane preparation (500-700 μg/ml) is determined according to the method of Lowry (Lowry O. H. et al. 1951. J. Biol. Chem. 193, 256-275).
# Alternatively, assays are performed with [^3H]-MMPEP (2-(3-methoxyphenylethynyl)-6-methylpyridine hydrochloride) as radioligand. The incubations are continued at room temperature for 60 minutes (equilibrium is achieved under the conditions used). […] Incubations are terminated using a Millipore filter system. The samples are rinsed twice with 4 ml of ice-cold assay buffer over glass fibre filters (Schleicher & Schuell, Germany) under a constant vacuum. Following separation and rinse, the filters are placed into scintillation liquid (5 ml Ultima Gold, Perkin Elmer, Germany) and radioactivity retained on the filters is determined with a conventional liquid scintillation counter (Canberra Packard, Germany).
# [2] = biological target: metabotropic glutamate receptor (mGluR5) (Homo sapiens, UniProt P41594); assay: Activity as mGluR5 modulator, test not specified
# Chain of metabotropic glutamate receptor (mGluR5) (P41594 21-1212): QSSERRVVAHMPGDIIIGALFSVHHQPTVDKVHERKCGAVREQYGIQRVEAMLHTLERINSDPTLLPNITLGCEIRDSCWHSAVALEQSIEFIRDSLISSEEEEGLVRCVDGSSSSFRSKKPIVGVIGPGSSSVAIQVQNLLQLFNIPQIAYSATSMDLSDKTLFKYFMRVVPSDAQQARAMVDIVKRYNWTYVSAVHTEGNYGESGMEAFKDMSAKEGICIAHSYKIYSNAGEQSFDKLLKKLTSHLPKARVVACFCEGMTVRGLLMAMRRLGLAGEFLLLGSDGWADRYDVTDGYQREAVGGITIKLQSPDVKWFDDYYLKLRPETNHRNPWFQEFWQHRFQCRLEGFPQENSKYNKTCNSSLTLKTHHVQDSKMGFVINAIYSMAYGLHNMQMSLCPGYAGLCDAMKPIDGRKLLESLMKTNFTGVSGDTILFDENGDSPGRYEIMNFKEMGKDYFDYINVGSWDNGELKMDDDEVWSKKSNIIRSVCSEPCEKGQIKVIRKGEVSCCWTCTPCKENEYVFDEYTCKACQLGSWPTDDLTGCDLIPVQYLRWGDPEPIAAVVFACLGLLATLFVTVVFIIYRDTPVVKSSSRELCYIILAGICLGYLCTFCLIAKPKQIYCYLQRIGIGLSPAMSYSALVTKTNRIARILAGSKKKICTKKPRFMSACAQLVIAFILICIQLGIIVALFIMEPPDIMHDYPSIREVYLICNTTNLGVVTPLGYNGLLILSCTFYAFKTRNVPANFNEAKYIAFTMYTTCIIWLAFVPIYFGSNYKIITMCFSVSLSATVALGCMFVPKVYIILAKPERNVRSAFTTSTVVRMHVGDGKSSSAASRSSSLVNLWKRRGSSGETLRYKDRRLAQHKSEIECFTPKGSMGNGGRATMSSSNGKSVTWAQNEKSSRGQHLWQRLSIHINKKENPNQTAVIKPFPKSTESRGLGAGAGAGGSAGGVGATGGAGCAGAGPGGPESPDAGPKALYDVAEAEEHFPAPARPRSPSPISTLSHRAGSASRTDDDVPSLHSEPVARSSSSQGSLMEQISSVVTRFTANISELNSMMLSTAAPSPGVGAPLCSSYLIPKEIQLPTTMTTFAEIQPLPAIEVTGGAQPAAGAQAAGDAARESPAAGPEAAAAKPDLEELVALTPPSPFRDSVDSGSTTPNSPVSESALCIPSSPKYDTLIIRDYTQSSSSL
# T1 sequence (P31424 21-1203): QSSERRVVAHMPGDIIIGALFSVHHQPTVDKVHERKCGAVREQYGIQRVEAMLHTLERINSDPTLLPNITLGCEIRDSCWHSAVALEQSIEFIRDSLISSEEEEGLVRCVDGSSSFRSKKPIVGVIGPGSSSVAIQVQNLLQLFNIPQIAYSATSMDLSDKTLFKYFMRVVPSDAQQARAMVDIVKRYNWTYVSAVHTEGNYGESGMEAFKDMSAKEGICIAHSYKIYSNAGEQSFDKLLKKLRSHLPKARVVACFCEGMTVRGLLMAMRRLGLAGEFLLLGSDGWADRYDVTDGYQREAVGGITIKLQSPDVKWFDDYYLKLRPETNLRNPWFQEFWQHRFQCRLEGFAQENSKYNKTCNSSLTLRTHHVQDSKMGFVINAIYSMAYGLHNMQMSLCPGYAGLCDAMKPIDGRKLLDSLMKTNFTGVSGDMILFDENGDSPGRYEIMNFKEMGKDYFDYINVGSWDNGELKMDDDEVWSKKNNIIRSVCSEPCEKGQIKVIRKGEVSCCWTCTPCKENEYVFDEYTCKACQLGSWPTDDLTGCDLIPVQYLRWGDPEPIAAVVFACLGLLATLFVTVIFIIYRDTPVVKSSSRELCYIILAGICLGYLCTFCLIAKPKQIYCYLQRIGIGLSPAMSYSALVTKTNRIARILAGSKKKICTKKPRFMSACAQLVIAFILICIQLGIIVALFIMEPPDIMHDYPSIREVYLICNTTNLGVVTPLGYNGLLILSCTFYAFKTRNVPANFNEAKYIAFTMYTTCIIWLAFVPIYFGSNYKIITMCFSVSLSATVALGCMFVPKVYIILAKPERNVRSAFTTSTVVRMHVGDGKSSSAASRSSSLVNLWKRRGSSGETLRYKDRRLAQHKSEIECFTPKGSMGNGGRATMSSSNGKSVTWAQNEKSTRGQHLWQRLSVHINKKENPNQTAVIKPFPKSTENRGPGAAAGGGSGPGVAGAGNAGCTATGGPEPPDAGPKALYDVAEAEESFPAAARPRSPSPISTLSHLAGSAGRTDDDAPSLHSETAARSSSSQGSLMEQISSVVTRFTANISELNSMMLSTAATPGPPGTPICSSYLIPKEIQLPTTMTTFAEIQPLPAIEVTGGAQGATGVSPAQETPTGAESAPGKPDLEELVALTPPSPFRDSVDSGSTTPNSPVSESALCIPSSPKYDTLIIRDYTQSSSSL
Compound,IC50 [1],activity as metabotropic glutamate receptor (mGluR5) modulator [2]
"O=C(c1cc2ncc(Cl)cn2n1)N1CCc2ncc(Br)cc2C1 [drawing 462, (3-Bromo-7,8-dihydro-5H-[1,6]naphthyridin-6-yl)-(6-chloro-pyrazolo[1,5-a]pyrimidin-2-yl)-methanone]",107 nM,–
"CC1c2cc(F)ccc2CCN1C(=O)c1cc2ncc(Br)cn2n1 (centres unmarked) [drawing 454, (6-Bromo-pyrazolo[1,5-a]pyrimidin-2-yl)-(7-fluoro-1-methyl-3,4-dihydro-1H-isoquinolin-2-yl)-methanone]",30 nM,–
"CC1CN(C(=O)c2cc3ncc(Cl)cn3n2)C(C)c2ccccc21 (centres unmarked) [drawing 457, (6-Chloro-pyrazolo[1,5-a]pyrimidin-2-yl)-(1,4-dimethyl-3,4-dihydro-1H-isoquinolin-2-yl)-methanone]",118 nM,–
"COc1ccc2c(c1)CCN(C(=O)c1cc3ncc(Cl)cn3n1)C2C (centres unmarked) [drawing 460, (6-Chloro-pyrazolo[1,5-a]pyrimidin-2-yl)-(6-methoxy-1-methyl-3,4-dihydro-1H-isoquinolin-2-yl)-methanone]",27 nM,–
"CC1c2ccc(F)cc2CCN1C(=O)c1cc2ncc(Cl)cn2n1 (centres unmarked) [drawing 456, (6-Chloro-pyrazolo[1,5-a]pyrimidin-2-yl)-(6-fluoro-1-methyl-3,4-dihydro-1H-isoquinolin-2-yl)-methanone]",40 nM,–
"CC1CN(C(=O)c2cc3ncc(Br)cn3n2)C(C)c2ccccc21 (centres unmarked) [drawing 458, (6-Bromo-pyrazolo[1,5-a]pyrimidin-2-yl)-(1,4-dimethyl-3,4-dihydro-1H-isoquinolin-2-yl)-methanone]",91 nM,–
"COc1ccc2c(c1)CCN(C(=O)c1cc3ncc(Br)cn3n1)C2C (centres unmarked) [drawing 459, (6-Bromo-pyrazolo[1,5-a]pyrimidin-2-yl)-(6-methoxy-1-methyl-3,4-dihydro-1H-isoquinolin-2-yl)-methanone]",20 nM,–
"CC1c2cccc(Br)c2CCN1C(=O)c1cc2ncc(Cl)cn2n1 (centres unmarked) [drawing 461, (5-Bromo-1-methyl-3,4-dihydro-1H-isoquinolin-2-yl)-(6-chloro-pyrazolo[1,5-a]pyrimidin-2-yl)-methanone]",21 nM,–
"COc1cc2c(cc1O)CCN(C(=O)c1cc3ncc(Br)cn3n1)C2C (centres unmarked) [drawing 453, 2-[(6-bromopyrazolo[1,5-a]pyrimidin-2-yl)carbonyl]-7-methoxy-1-methyl-1,2,3,4-tetrahydro-6-isoquinolinol]",60 nM,–
"O=C(c1cc2ncc(Br)cn2n1)N1CCCCC1 [Example B308, (6-Bromopyrazolo[1,5-a]pyrimidin-2-yl)-piperidin-1-yl-methanone]",–,no particular activity
"O=C(c1cc2ncc(Br)cn2n1)N1CCOCC1 [Example B310, (6-Bromopyrazolo[1,5-a]pyrimidin-2-yl)-morpholin-4-yl-methanone]",–,no particular activity
